Laboratory results taken from ChEMBL document CHEMBL1201862, “PubChem BioAssay data set” (2004).
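A five-concentration, 48-hour dose response in 96-well plates underlies each endpoint, interpolated linearly between surrounding concentrations. GI50 is the concentration that inhibits growth by half.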 Active and inactive are the calls of the source. Rule as the data show it: active = GI50 up to about 1.1 µM and inactive = higher.

Columns and labels:
Experiment in all cases: DTP human tumour cell line panel, 48 h
SK-MEL-2 = tested on: SK-MEL-2
EKVX = tested on: EKVX
CCRF-CEM = tested on: CCRF-CEM
HT-29 = tested on: HT-29
M14 = tested on: M14
OVCAR-3 = tested on: OVCAR-3
OVCAR-8 = tested on: OVCAR-8
PC-3 = tested on: PC-3
COLO 205 = tested on: COLO 205
SF-295 = tested on: SF-295
UACC-62 = tested on: UACC-62
SK-MEL-28 = tested on: SK-MEL-28
T47D = tested on: T47D
HL-60 = tested on: HL-60
MDA-MB-231 = tested on: MDA-MB-231
NCI-H23 = tested on: NCI-H23
NCI-H226 = tested on: NCI-H226
UO-31 = tested on: UO-31
HCT-15 = tested on: HCT-15
RXF 393 = tested on: RXF 393

## Cc1ccc(NC(=O)c2cccc(OP(=O)(Nc3ccc(C)cc3)Nc3ccc(C)cc3)c2)cc1
SK-MEL-2
  GI50: 15.3 µM (inactive)
EKVX
  GI50: 7.94 µM (inactive)
CCRF-CEM
  GI50: 13.8 µM (inactive)
HT-29
  GI50: 3.5 µM (inactive)
M14
  GI50: 3.21 µM (inactive)
OVCAR-3
  GI50: 5.83 µM (inactive)
OVCAR-8
  GI50: 16 µM (inactive)
PC-3
  GI50: 7.78 µM (inactive)
COLO 205
  GI50: 2.32 µM (inactive)
SF-295
  GI50: 7.13 µM (inactive)
UACC-62
  GI50: 20.3 µM (inactive)
SK-MEL-28
  GI50: 29.9 µM (inactive)
T47D
  GI50: 5.53 µM (inactive)
HL-60
  GI50: 9.95 µM (inactive)
MDA-MB-231
  GI50: 3.32 µM (inactive)
NCI-H23
  GI50: 10.9 µM (inactive)
NCI-H226
  GI50: 8.04 µM (inactive)
UO-31
  GI50: 4.53 µM (inactive)
HCT-15
  GI50: 6.01 µM
RXF 393
  GI50: 1.91 µM (inactive)

## O=C(/C=C/c1ccccc1Br)c1ccccc1
SK-MEL-2
  GI50: 15.7 µM (inactive)
EKVX
  GI50: 13 µM (inactive)
CCRF-CEM
  GI50: 0.259 µM (active)
HT-29
  GI50: 3.03 µM (inactive)
M14
  GI50: 6.61 µM (inactive)
OVCAR-3
  GI50: 10.4 µM (inactive)
OVCAR-8
  GI50: 2.63 µM (inactive)
PC-3
  GI50: 11.4 µM (inactive)
COLO 205
  GI50: 14.5 µM (inactive)
SF-295
  GI50: 11.3 µM (inactive)
UACC-62
  GI50: 11.4 µM (inactive)
SK-MEL-28
  GI50: 3.69 µM (inactive)
T47D
  GI50: 4.52 µM (inactive)
HL-60
  GI50: 1.35 µM (inactive)
MDA-MB-231
  GI50: 13.2 µM (inactive)
NCI-H23
  GI50: 4.39 µM (inactive)
NCI-H226
  GI50: 17.1 µM (inactive)
UO-31
  GI50: 5.55 µM (inactive)
HCT-15
  GI50: 2.11 µM
RXF 393
  GI50: 7.82 µM (inactive)

## O=c1c2ccccc2n2cnc3ccc(NCCNCCO)c1c32
SK-MEL-2
  GI50: 3.03 µM (inactive)
EKVX
  GI50: 2.56 µM (inactive)
CCRF-CEM
  GI50: 1.22 µM (inactive)
HT-29
  GI50: 1.06 µM (active)
M14
  GI50: 2.71 µM (inactive)
OVCAR-3
  GI50: 2.19 µM (inactive)
OVCAR-8
  GI50: 0.855 µM (active)
PC-3
  GI50: 1.91 µM (inactive)
COLO 205
  GI50: 0.834 µM (active)
SF-295
  GI50: 1.83 µM (inactive)
UACC-62
  GI50: 2.31 µM (inactive)
SK-MEL-28
  GI50: 3.18 µM (inactive)
T47D
  GI50: 4.76 µM (inactive)
HL-60
  GI50: 2.42 µM (inactive)
MDA-MB-231
  GI50: 2.31 µM (inactive)
NCI-H23
  GI50: 2.16 µM (inactive)
NCI-H226
  GI50: 1.29 µM (inactive)
UO-31
  GI50: 2.87 µM (inactive)
HCT-15
  GI50: 3.18 µM
RXF 393
  GI50: 0.757 µM (active)

## CCC1(c2ccc(N3C(=O)c4cc(OC)c(OC)cc4C3=O)cc2)CCC(=O)NC1=O (stereo not given)
SK-MEL-2
  GI50: > 10 µM (inactive)
EKVX
  GI50: > 10 µM (inactive)
CCRF-CEM
  GI50: > 10 µM (inactive)
HT-29
  GI50: > 10 µM (inactive)
M14
  GI50: > 10 µM (inactive)
OVCAR-3
  GI50: > 10 µM (inactive)
OVCAR-8
  GI50: > 10 µM (inactive)
PC-3
  GI50: > 10 µM (inactive)
COLO 205
  GI50: > 10 µM (inactive)
SF-295
  GI50: > 10 µM (inactive)
UACC-62
  GI50: > 10 µM (inactive)
SK-MEL-28
  GI50: > 10 µM (inactive)
T47D
  GI50: > 10 µM (inactive)
HL-60
  GI50: > 10 µM (inactive)
MDA-MB-231
  GI50: > 10 µM (inactive)
NCI-H23
  GI50: > 10 µM (inactive)
NCI-H226
  GI50: > 10 µM (inactive)
UO-31
  GI50: > 10 µM (inactive)
HCT-15
  GI50: > 10 µM
RXF 393
  GI50: > 10 µM (inactive)

## C=C(CN(C)C)C(=O)c1ccc(OC2OC(COC(C)=O)C(OC(C)=O)C(OC(C)=O)C2OC(C)=O)cc1 (stereo not given)
SK-MEL-2
  GI50: 10.3 µM (inactive)
EKVX
  GI50: 11.8 µM (inactive)
CCRF-CEM
  GI50: 0.185 µM (active)
HT-29
  GI50: 2.75 µM (inactive)
M14
  GI50: 2.4 µM (inactive)
OVCAR-3
  GI50: 2.25 µM (inactive)
OVCAR-8
  GI50: 4.21 µM (inactive)
PC-3
  GI50: 15.3 µM (inactive)
COLO 205
  GI50: 0.753 µM (active)
SF-295
  GI50: 21.3 µM (inactive)
UACC-62
  GI50: 4.7 µM (inactive)
SK-MEL-28
  GI50: 2.52 µM (inactive)
T47D
  GI50: 2.9 µM (inactive)
HL-60
  GI50: 0.456 µM (active)
MDA-MB-231
  GI50: 5 µM (inactive)
NCI-H23
  GI50: 8.89 µM (inactive)
NCI-H226
  GI50: 7.36 µM (inactive)
UO-31
  GI50: 2.34 µM (inactive)
HCT-15
  GI50: 3.03 µM
RXF 393
  GI50: 1.76 µM (inactive)

## N=C1CCCC1C(=S)SCCC(N)=O (stereo not given)
SK-MEL-2
  GI50: > 100 µM (inactive)
EKVX
  GI50: > 100 µM (inactive)
CCRF-CEM
  GI50: > 100 µM (inactive)
HT-29
  GI50: > 100 µM (inactive)
M14
  GI50: > 100 µM (inactive)
OVCAR-3
  GI50: > 100 µM (inactive)
OVCAR-8
  GI50: > 100 µM (inactive)
PC-3
  GI50: > 100 µM (inactive)
COLO 205
  GI50: > 100 µM (inactive)
SF-295
  GI50: > 100 µM (inactive)
UACC-62
  GI50: > 100 µM (inactive)
SK-MEL-28
  GI50: > 100 µM (inactive)
T47D
  GI50: > 100 µM (inactive)
HL-60
  GI50: > 100 µM (inactive)
MDA-MB-231
  GI50: > 100 µM (inactive)
NCI-H23
  GI50: > 100 µM (inactive)
NCI-H226
  GI50: > 100 µM (inactive)
UO-31
  GI50: > 100 µM (inactive)
HCT-15
  GI50: > 100 µM
RXF 393
  GI50: > 100 µM (inactive)
